The Kd is the free concentration of one partner at which half of the binding sites on the other are occupied at equilibrium, for simple one-to-one binding.

Molecules are shown by their SMILES.

This is an account of results in US20240132531A1, “NOVEL GALACTOSIDE INHIBITOR OF GALECTINS” (GALECTO BIOTECH AB, priority 2020, published 2024).

One assay addresses galectin-3 (Homo sapiens, UniProt P17931). The experiment in a line: Fluorescence anisotropy assay, affinity for galectin-3. Particulars: compound as inhibitor of the interaction between galectin and a fluorescein tagged saccharide probe; read-out: Gal-3 Kd. It is filed as binding. Here is the method: (§1) The affinity of Example 1-39 for galectins were determined by a fluorescence anisotropy assay where the compound was used as an inhibitor of the interaction between galectin and a fluorescein tagged saccharide probe as described Sarme, P., Kahl-Knutsson, B., Huflejt, M., Nilsson, U. J., and Leffler H. (2004) Fluorescence polarization as an analytical tool to evaluate galectin-ligand interactions. Anal. Biochem. 334: 36-47, (Sarme et al., 2004) and Monovalent interactions of Galectin-1 By Salomonsson, Emma; Larumbe, Amaia; Tejler, Johan; Tullberg, Erik; Rydberg, Hanna; Sundin, Anders; Khabut, Areej; Frejd, Torbjorn; Lobsanov, Yuri D.; Rini, James M.; et al, From Biochemistry (2010), 49(44), 9518-9532, (Salomonsson et al., 2010).
Background: Fluorescence polarisation rises when a labelled molecule tumbles more slowly, as on binding a larger partner.

The target of another assay is galectin-1 (Homo sapiens, UniProt P09382). The experiment in a line: Fluorescence anisotropy assay, affinity for galectin-1. Particulars: compound as inhibitor of the interaction between galectin and a fluorescein tagged saccharide probe; read-out: Gal-1 Kd. It is filed as binding. Here is the method: as §1
Chain of galectin-1 (P09382 whole entry): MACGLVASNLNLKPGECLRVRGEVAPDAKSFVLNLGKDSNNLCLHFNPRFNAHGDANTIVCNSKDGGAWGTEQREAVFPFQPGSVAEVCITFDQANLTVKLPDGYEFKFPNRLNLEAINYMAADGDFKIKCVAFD

Chain of galectin-3 (P17931 whole entry): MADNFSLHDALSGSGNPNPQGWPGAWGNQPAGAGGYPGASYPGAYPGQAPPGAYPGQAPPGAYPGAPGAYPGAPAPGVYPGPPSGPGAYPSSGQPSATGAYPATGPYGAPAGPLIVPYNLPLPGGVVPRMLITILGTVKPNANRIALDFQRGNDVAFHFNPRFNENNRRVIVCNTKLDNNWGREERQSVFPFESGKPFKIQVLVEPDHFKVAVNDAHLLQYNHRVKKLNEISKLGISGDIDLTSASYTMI

With `COC1C(n2cc(-c3nc(Cl)cs3)nn2)[C@@H](O)C(CO)O[C@H]1c1cc(C(C)C)nn1-c1cc(Cl)ccc1C(F)(F)F` (stereo partly drawn) [Example 28, 1-{5-{3-[4-(4-Chlorothiazol-2-yl)-1H-1,2,3-triazol-1-yl]-3-deoxy-2-O-methyl-β-D-galactopyranosyl}-3-isopropyl-1H-1,2-pyrazol-1-yl}-5-chloro-2-(trifluoromethyl)benzene], the Kd at galectin-3 is 320 nM; at galectin-1, 180 nM.
On to `COC1C(n2cc(-c3nc(Cl)cs3)nn2)[C@@H](O)C(CO)O[C@H]1c1cc(C#N)nn1-c1cc(Cl)ccc1C(F)(F)F` (stereo partly drawn) [Example 31, 1-{5-{3-[4-(4-Chlorothiazol-2-yl)-1H-1,2,3-triazol-1-yl]-3-deoxy-2-O-methyl-β-D-galactopyranosyl}-3-cyano-1H-1,2-pyrazol-1-yl}-5-chloro-2-(trifluoromethyl)benzene], for which the dissociation constant (Kd) on galectin-3 came to 400 nM; at galectin-1 it was 71 nM.
On the same counts, the results for `COC1C(n2cc(-c3csc(N)n3)nn2)[C@@H](O)C(CO)O[C@H]1c1ccnn1-c1cc(Cl)ccc1C(F)(F)F` (stereo partly drawn) [Example 34, 1-{5-{3-[4-(2-Aminothiazol-4-yl)-1H-1,2,3-triazol-1-yl]-3-deoxy-2-O-methyl-β-D-galactopyranosyl}-1H-1,2-pyrazol-1-yl}-5-chloro-2-(trifluoromethyl)benzene] are 6700 nM and 49 nM.
On the same counts, the results for `OCC1O[C@@H](c2ccnn2-c2cc(Cl)ccc2C(F)(F)F)C(O)C(n2cc(-n3ccc(Cl)n3)nn2)[C@H]1O` (stereo partly drawn) [Example 8, 1-{5-{3-[4-(3-Chloro-1H-1,2-pyrazol-1-yl)-1H-1,2,3-triazol-1-yl]-3-deoxy-β-D-galactopyranosyl}-1H-1,2-pyrazol-1-yl}-5-chloro-2-(trifluoromethyl)benzene] are 880 nM and 270 nM.
As for `CCc1cc([C@@H]2OC(CO)[C@H](O)C(n3cc(-c4nc(Cl)cs4)nn3)C2OC)n(-c2cc(Cl)ccc2C(F)(F)F)n1` (stereo partly drawn) [Example 30, 1-{5-{3-[4-(4-Chlorothiazol-2-yl)-1H-1,2,3-triazol-1-yl]-3-deoxy-2-O-methyl-β-D-galactopyranosyl}-3-ethyl-1H-1,2-pyrazol-1-yl}-5-chloro-2-(trifluoromethyl)benzene], the results for the Kd at galectin-3 and at galectin-1 were 680 nM and 100 nM, respectively.
On the same counts, the results for `OCC1O[C@@H](c2ccnn2-c2cc(Cl)ccc2C(F)(F)F)C(O)C(n2cc(-c3nc(Cl)cs3)nn2)[C@H]1O` (stereo partly drawn) [Example 11, 1-{5-{3-[4-(4-Chlorothiazol-2-yl)-1H-1,2,3-triazol-1-yl]-3-deoxy-β-D-galactopyranosyl}-1H-1,2-pyrazol-1-yl}-5-chloro-2-(trifluoromethyl)benzene] are 430 nM and 48 nM.
Consider `COC1C(n2cc(-c3csc(O)n3)nn2)[C@@H](O)C(CO)O[C@H]1c1ccnn1-c1cc(Cl)c(Cl)cc1C(F)(F)F` (stereo partly drawn) [Example 36, 4,5-Dichloro-1-{5-{3-deoxy-3-[4-(2-hydroxythiazol-4-yl)-1H-1,2,3-triazol-1-yl]-2-O-methyl-β-D-galactopyranosyl}-1H-1,2-pyrazol-1-yl}-2-(trifluoromethyl)benzene], for which the values for the dissociation constant (Kd) on galectin-3 and at galectin-1 were 9400 nM and 26 nM, respectively.
As to `COC1C(n2cc(-c3nc(Cl)cs3)nn2)[C@@H](O)C(CO)O[C@H]1c1ccnn1-c1cc(Br)cnc1C(F)(F)F` (stereo partly drawn) [Example 33, 5-Bromo-3-{5-{3-[4-(4-chlorothiazol-2-yl)-1H-1,2,3-triazol-1-yl]-3-deoxy-2-O-methyl-β-D-galactopyranosyl}-1H-1,2-pyrazol-1-yl}-2-(trifluoromethyl)pyridine], the Kd on galectin-3 came out at 530 nM; at galectin-1, 32 nM.
Consider `COC1C(n2cc(-c3nccs3)nn2)[C@@H](O)C(CO)O[C@H]1c1ccnn1-c1cc(Cl)ccc1C(F)(F)F` (stereo partly drawn) [Example 2, 5-Chloro-1-{5-{3-deoxy-2-O-methyl-3-[4-(2-thiazolyl)-1H-1,2,3-triazol-1-yl]-β-D-galactopyranosyl}-1H-1,2-pyrazol-1-yl}-2-(trifluoromethyl)benzene], for which the figures for the Kd at galectin-3 and on galectin-1 were 7560 nM and 170 nM, respectively.
With `COC1C(n2cc(-c3nc(Cl)cs3)nn2)[C@@H](O)C(CO)O[C@H]1c1ccnn1-c1cc(Cl)ccc1C(F)(F)F` (stereo partly drawn) [Example 1, 1-{5-{3-[4-(4-Chlorothiazol-2-yl)-1H-1,2,3-triazol-1-yl]-3-deoxy-2-O-methyl-β-D-galactopyranosyl}-1H-1,2-pyrazol-1-yl}-5-chloro-2-(trifluoromethyl)benzene], the values for the Kd at galectin-3 and at galectin-1 were 450 nM and 36 nM, respectively.
In the case of `OCC1O[C@@H](c2ccnn2-c2cc(Cl)ccc2C(F)(F)F)C(O)C(n2cc(-c3ncc(Cl)s3)nn2)[C@H]1O` (stereo partly drawn) [Example 10, 1-{5-{3-[4-(5-Chlorothiazol-2-yl)-1H-1,2,3-triazol-1-yl]-3-deoxy-β-D-galactopyranosyl}-1H-1,2-pyrazol-1-yl}-5-chloro-2-(trifluoromethyl)benzene], the equilibrium dissociation constant (Kd) on galectin-3 turned out to be 330 nM; on galectin-1, 43 nM.
For `COC1C(n2cc(-c3nc(Cl)cs3)nn2)[C@@H](O)C(CO)O[C@H]1c1cc(Cl)nn1-c1cc(Cl)ccc1C(F)(F)F` (stereo partly drawn) [Example 25, 1-{5-{3-[4-(4-Chlorothiazol-2-yl)-1H-1,2,3-triazol-1-yl]-3-deoxy-2-O-methyl-β-D-galactopyranosyl}-3-chloro-1H-1,2-pyrazol-1-yl}-5-chloro-2-(trifluoromethyl)benzene], the equilibrium dissociation constant (Kd) was found to be 180 nM on galectin-3 and 40 nM on galectin-1.
On the same counts, the results for `COC1C(n2cc(-c3nc(Cl)cs3)nn2)[C@@H](O)C(CO)O[C@H]1c1cc(C(=O)O)nn1-c1cc(Cl)ccc1C(F)(F)F` (stereo partly drawn) [Example 18, 1-{3-Carboxy-5-{3-[4-(4-chlorothiazol-2-yl)-1H-1,2,3-triazol-1-yl]-3-deoxy-2-O-methyl-β-D-galactopyranosyl}-1H-1,2-pyrazol-1-yl}-5-chloro-2-(trifluoromethyl)benzene] are 320 nM and 420 nM.
`Cc1cc([C@@H]2OC(CO)[C@H](O)C(n3cc(-c4nc(Cl)cs4)nn3)C2O)n(-c2cc(Cl)ccc2C(F)(F)F)n1` (stereo partly drawn) [Example 9, 1-{5-{3-[4-(4-Chlorothiazol-2-yl)-1H-1,2,3-triazol-1-yl]-3-deoxy-β-D-galactopyranosyl}-3-methyl-1H-1,2-pyrazol-1-yl}-5-chloro-2-(trifluoromethyl)benzene]: the dissociation constant Kd at galectin-3 turned out to be 370 nM; at galectin-1, 37 nM.
On to `COC1[C@@H](n2cc(-c3nc(Cl)cs3)nn2)[C@@H](O)C(CO)O[C@H]1c1ccnn1-c1cc(Br)c(F)cc1C(F)(F)F` (stereo partly drawn) [Example 23, 5-Bromo-1-{5-{3-[4-(4-chlorothiazol-2-yl)-1H-1,2,3-triazol-1-yl]-3-deoxy-2-O-methyl-β-D-galactopyranosyl}-1H-1,2-pyrazol-1-yl}-4-fluoro-2-(trifluoromethyl)benzene], for which the Kd at galectin-3 worked out at 290 nM; on galectin-1, 24 nM.
Turning to `COC1C(n2cc(-c3cscn3)nn2)[C@@H](O)C(CO)O[C@H]1c1ccnn1-c1cc(Cl)ccc1C(F)(F)F` (stereo partly drawn) [Example 38, 5-Chloro-1-{5-{3-deoxy-2-O-methyl-3-[4-(4-thiazolyl)-1H-1,2,3-triazol-1-yl]-β-D-galactopyranosyl}-1H-1,2-pyrazol-1-yl}-2-(trifluoromethyl)benzene], the dissociation constant (Kd) on galectin-3 was 4900 nM; on galectin-1 it was 120 nM.
The corresponding values for `COC1C(n2cc(-c3nc(Cl)cs3)nn2)[C@@H](O)C(CO)O[C@H]1c1cc(C)nn1-c1ccc2nc(C)sc2c1` (stereo partly drawn) [Example 15, 1-{5-{3-[4-(4-Chlorothiazol-2-yl)-1H-1,2,3-triazol-1-yl]-3-deoxy-2-O-methyl-β-D-galactopyranosyl}-3-methyl-1H-1,2-pyrazol-1-yl}-2-methylbenzothiazole] are 2000 nM and 67 nM.
In the case of `COC1C(n2cc(-c3nc(C)cs3)nn2)[C@@H](O)C(CO)O[C@H]1c1ccnn1-c1cc(Cl)ccc1C(F)(F)F` (stereo partly drawn) [Example 4, 5-Chloro-1-{5-{3-deoxy-3-[4-(4-methylthiazol-2-yl)-1H-1,2,3-triazol-1-yl]-2-O-methyl-β-D-galactopyranosyl}-1H-1,2-pyrazol-1-yl}-2-(trifluoromethyl)benzene], the Kd turned out to be 3260 nM on galectin-3 and 260 nM on galectin-1.
